We go through three molecules from patent US20240018132A1, “5-HYDROXY-1,4-NAPHTHALENEDIONE FOR USE IN THE TREATMENT OF CANCER” (GODAVARI BIOREFINERIES LIMITED, priority 2020, published 2024).

pIC50: −log10 of the molar value. “And” between values parts separate entries of the source, which are not always exact repeats. Identical values can stand only once.

The subject of assay [1] is MDAMB231. In words: In vitro antiproliferative assay (MTT assay), breast cancer cell line. The assay is classed as cell-based. In a few lines: (§1)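 Metabolic reduction of MTT served as the growth measure. Plated cells rested 24 h, received compound for 48 h at 37 °C under 5% CO2, then MTT at 0.5 mg/ml for 4 h before DMSO solubilization.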
(Tetrazolium dyes change colour on reduction, which living cells bring about.)

Assay [2] deals with PC3. In words: In vitro antiproliferative assay (MTT assay), prostate cancer cell line. The assay is classed as cell-based. In a few lines: as §1
In assay [3] the test system is MDAMB231. In words: Soft agar colony-formation assay, breast cancer. It counts as cell-based. As to conditions: Soft Agar Assay, 1 week, Alamar Blue. The procedure: (§2) The Soft Agar Colony-formation Assay is an anchorage-independent growth assay in soft agar, which is one of the most stringent assays for detecting malignant transformation of cells. For this assay, malignant cells are cultured with appropriate controls in soft agar medium for 1-2 weeks. Following this incubation period, formed colonies can either be analyzed morphologically using cell stain and quantifying the number of colonies formed.
(§3) Briefly, for Soft Agar Assay a mixture of 50 ul of 2× medium (taken appropriately as per cell line) and 50 ul of 1.2% Bacto Agar were plated on to each well of 96 well micro titer assay plate. 10 ul of cells (of specific plating efficiency pre standardized for respective cell line) were mixed with 20 ul of 2× medium and 30 ul of 0.8% of Bacto Agar and 1.6 ul of drug (of appropriate concentration) in a vial and transferred to the solidified pre layers of the assay plates. The cells were then allowed to grow and form colonies at 37° C. and 5% CO2 for 1 week. An intermittent feeding with 50 ul of appropriate 2× medium was performed after 3 days of experimental set up. 16 ul of Alamar Blue (1.5 mg/ml) was then added to all the wells to quantify the developed colonies. The plates were incubated for 24 hrs at 37° C. Absorbance was then measured at 630 nm. XY graph of log Percent viability was then plotted against log drug concentration.
(§4) Following plating efficiencies were standardized for Soft Agar Assay: […]
In general terms: Resazurin is reduced to fluorescent resorufin, in cell work by metabolically active cells.

Assay [4] relates to PC3. In words: Soft agar colony-formation assay, prostate cancer. It counts as cell-based. As to conditions: Soft Agar Assay, 1 week, Alamar Blue. The procedure:
as §2, §3, §4

The test system of assay [5] is MDAMB231. Kind of assay: Wound Healing Assay (WHA), breast cancer cell line. It counts as cell-based. Particulars: IC10 conc. of compound. The procedure: (§5) Wound Healing Assay (WHA) determines the ability of cancer stem cells to heal the wound formed in a confluent monolayer.
(§6) Procedure: 0.35×10^6 cells were plated in each well of 6 Tissue Culture well plates. The plate was incubated for 48 hrs at 37° C., 5% CO2. […] IC10 conc. of the respective compound was added into each well. The plates were incubated at 37° C., 5% CO2 and the width of scratch was measured at various time intervals such as 6, 24 and 48 hours. Average of 3 distances were taken for each time point using IS camera Measure. A plot of average width of scratch in micrometer was plotted against the time interval after treatment.

The test system of assay [6] is PC3. In words: Wound Healing Assay (WHA), prostate cancer cell line. The assay is classed as cell-based. As to conditions: IC10 conc. of compound. The procedure: as §5, §6
Assay [7] relates to Aldehyde dehydrogenase (ALDH). In words: Aldehyde Dehydrogenase (ALDH) assay, ELISA kit. The assay is classed as cell-based. As to conditions: MDAMB231, 48 hrs. The text has this: Aldehyde dehydrogenases (ALDH) are a family of enzymes that catalyze the metabolism of exogenous and endogenous aldehydes, preventing the accumulation of potentially reactive and toxic aldehydes and their metabolites. In addition to their role in aldehyde metabolism, ALDH enzymes also play critical roles in other cellular processes such as cell proliferation, differentiation, and survival. ALDH also serves as a marker for certain stem cell populations including hematopoietic stem cells and certain cancer stem cells. ALDH concentration was determined by using ([…] Dx) ELISA kit by following protocol: • 1 Standards (50 μl)/sample (40 μl) were added to the respective wells, (except Blank). • 2. (10 μl) Antibody-Biotin conjugate was then added in each sample well (except Blank). • 3. (50 μl) of Horse Radish Peroxidase (HRP) Conjugate was then added to each well (except Blank). • 4. The plates were incubated for one hour at 37° C. in the incubator. • 5. Wash (4 times with wash buffer) and blot residual buffer by firmly tapping the plate on the absorbent paper. Wipe off any liquid from the bottom of the microtiter wells as any residue can interfere in the reading step. • 6. Add TMB substrate A (50 μl) and then TMB substrate B (50 μl) to each well including Blank as well. • 7. Incubate for 10 mins at 37° C. in dark. • 8. Add (50 μl) stop solution. Wells should turn from blue to yellow. • 9. Read absorbance at 450 nm. • 10 A X-Y graph of concentration vs optical density was plotted. ALDH concentration was calculated by substituting optical density values in the regression analysis equation.

Assay [8] deals with MDAMB231. Kind of assay: In vitro sphere-forming assay (cancer stem cells), Mammosphere media. Particulars: drug 250 uM; Mammosphere media; 2000 cells/well; n = 6 ± S.D.
In assay [9] the test system is MCF7. In words: In vitro antiproliferative assay (MTT assay), MCF7. It counts as cell-based. Particulars: Homo sapiens, second value of MDAMB231/MCF7 column. The procedure: MTT assay is a simple and sensitive assay where, metabolic reducing activity of the cells is measured. The increase of this activity in time is taken as a parameter of cell growth. If treatment with a drug impairs this increase, the action is a consequence of growth inhibition, cell killing or both. […] All cell lines were cultured in a 37° C. incubator with a 5% CO2 environment. Compounds were dissolved in DMSO with a concentration of 0.1M (stock solution). Cells were seeded into 96-well plates at suitable plating efficiency.
In the MTT procedure, the cells were plated in 96 well plates as per predetermined plating efficiency (Table1). The plates were then incubated for 24 hrs in 5% CO2 atmosphere at 37° C. Appropriate concentrations of the drugs were then added to the plate and further incubation was carried out for 48 hrs (in 5% CO2 atmosphere at 37° C.). The assay plate was then centrifuged twice at 3000 rpm for 3 mins and supernatant was then discarded. 100 ul of MTT solution (0.5 mg/ml) was then added to each well of the plate and it was further incubated for 4 hrs (in 5% CO2 atmosphere at 37° C.) Following 4 hr incubation, the plate was then centrifuged twice, and supernatant was aspirated off very carefully. 200 ul of DMSO was then added to each well to solubilize. MTT crystals and mixed well by shaking the plate. […]

Where [10] appears, read: Homo sapiens, MDA-MB-231, MTT assay, MDAMB231.
Where [11] appears, read: Homo sapiens, PC-3, MTT assay, PC3.

For `N.N.[Cl][Pt][Cl]` [Cisplatin, reference compound], the pIC50 was 4.51 in assay [1] (MTT assay, breast cancer MDAMB231, 48 hrs drug incubation); 4.45 in assay [2] (MTT assay, prostate cancer PC3, 48 hrs drug incubation); 4.45 in assay [3]; 4.46 in [4]. For the same molecule, the “% inhibition of Wound Healing for Breast Cancer Cell line (MDAMB231) after 48 hrs” value in [5] was 33.78%. In addition, the “% inhibition of Wound Healing for Prostate Cancer Cell line (PC3) after 48 hrs” value in assay [6] amounted to 25.13%. Moreover, the “% inhibition of ALDH on Breast Cancer Cell line (MDAMB231) after 48 hrs” value in [7] turned out to be 26.45%. For the same molecule, the “3D sphere count of MDAMB231” value in assay [8] is 28(±3) and 26(±3).

Regarding `O=C1C(Oc2ccc3c(c2)OCO3)=CC(=O)c2c(OCCCCN3CCOCC3)cccc21` [Formula 82], the pIC50 in assay [1] (setting [10]) was 6.01; in [2] (setting [11]), 6.24; in [9] it was 6.32.

For the molecule `O=C1C=C(Oc2ccc(F)c(F)c2)C(=O)c2c(OCCN3CCOCC3)cccc21` [Formula 83], the pIC50 is 6.07 in assay [1] (setting [10]), 6.14 in [2] (setting [11]) and 6.18 in [9].

As usually defined, the pIC50 is −log10 of the IC50, conventionally taken in molar units. A higher pIC50 goes with a small IC50.
